ChEMBL document CHEMBL1201862, “PubChem BioAssay data set” (2004)
Calls of active or inactive are those of the source.

Key:
[1] = target: UDP-galactopyranose mutase (Mycobacterium tuberculosis, UniProt P9WIQ1); assay: Inhibitors of Mycobacterium tuberculosis UDP-galactopyranose mutase (UGM) enzyme Measured in Biochemical System Using Plate Reader - 2105-02_Inhibitor_Dose_CherryPick_Activity. [Related pubchem assays (depositor defined):AID504439]
[2] = Luminescence Cell-Based Dose Response HTS to Identify Inhibitors of 5'UTR Stem-Loop Driven Prion Protein mRNA Translation in H4 Neuroglioblastoma Cells. [Related pubchem assays: 1827 (Project Summary), 1813 (Primary HTS)]; format: functional
14-3-3 protein gamma = 14-3-3 protein gamma (Homo sapiens, UniProt P61981); assay: modulators of 14-3-3 gamma client binding – dose response (AID 711); format: functional
[3] = target: T1, Apoptotic protease-activating factor 1 (Homo sapiens, UniProt O14727); assay: activation of Apaf-1 mediated apoptosis – fluorescent, uHTS hits, dose response (AID 588554); format: functional
T1 sequence (O14727 whole entry): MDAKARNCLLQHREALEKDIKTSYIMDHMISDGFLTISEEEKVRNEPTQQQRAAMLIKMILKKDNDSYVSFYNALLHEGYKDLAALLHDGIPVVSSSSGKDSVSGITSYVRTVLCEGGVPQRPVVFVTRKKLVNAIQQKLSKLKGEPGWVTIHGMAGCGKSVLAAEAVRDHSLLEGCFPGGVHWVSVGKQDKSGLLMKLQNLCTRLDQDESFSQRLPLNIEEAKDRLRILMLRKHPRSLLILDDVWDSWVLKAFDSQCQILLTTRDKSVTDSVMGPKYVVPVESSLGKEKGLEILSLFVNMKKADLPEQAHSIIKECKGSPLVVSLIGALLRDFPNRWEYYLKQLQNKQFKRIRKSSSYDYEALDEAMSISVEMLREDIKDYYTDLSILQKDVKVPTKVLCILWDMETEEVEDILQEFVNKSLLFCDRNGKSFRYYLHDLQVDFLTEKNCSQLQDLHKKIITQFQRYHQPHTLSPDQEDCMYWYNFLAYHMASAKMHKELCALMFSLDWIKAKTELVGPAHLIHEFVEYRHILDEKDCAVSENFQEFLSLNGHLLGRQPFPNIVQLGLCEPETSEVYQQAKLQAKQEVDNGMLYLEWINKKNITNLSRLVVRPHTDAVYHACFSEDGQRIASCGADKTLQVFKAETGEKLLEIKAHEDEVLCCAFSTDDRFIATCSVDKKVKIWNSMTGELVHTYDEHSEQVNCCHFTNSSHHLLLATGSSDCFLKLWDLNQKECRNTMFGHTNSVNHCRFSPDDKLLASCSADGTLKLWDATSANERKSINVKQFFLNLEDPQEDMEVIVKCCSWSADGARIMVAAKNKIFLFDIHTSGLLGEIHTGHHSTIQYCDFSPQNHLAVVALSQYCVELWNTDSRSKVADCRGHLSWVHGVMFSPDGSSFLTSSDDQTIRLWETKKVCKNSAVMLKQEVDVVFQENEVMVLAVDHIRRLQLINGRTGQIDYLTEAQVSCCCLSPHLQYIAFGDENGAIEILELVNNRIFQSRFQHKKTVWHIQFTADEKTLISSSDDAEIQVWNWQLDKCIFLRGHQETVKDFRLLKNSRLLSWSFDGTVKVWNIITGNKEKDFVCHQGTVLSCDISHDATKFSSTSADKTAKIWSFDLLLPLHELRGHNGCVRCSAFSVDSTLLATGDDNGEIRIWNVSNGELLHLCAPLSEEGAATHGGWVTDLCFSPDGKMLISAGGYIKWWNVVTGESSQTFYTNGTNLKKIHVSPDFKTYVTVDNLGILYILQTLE

[4] = target: T2, Lysine-specific demethylase 4A (Homo sapiens, UniProt O75164); assay: JMJD2A histone demethylase inhibitors, dose response, selectivity assay for GASC-1 inhibitor project, biochemical, DELFIA europium, cherry-picked samples (AID 488840)
T2 sequence (O75164 whole entry): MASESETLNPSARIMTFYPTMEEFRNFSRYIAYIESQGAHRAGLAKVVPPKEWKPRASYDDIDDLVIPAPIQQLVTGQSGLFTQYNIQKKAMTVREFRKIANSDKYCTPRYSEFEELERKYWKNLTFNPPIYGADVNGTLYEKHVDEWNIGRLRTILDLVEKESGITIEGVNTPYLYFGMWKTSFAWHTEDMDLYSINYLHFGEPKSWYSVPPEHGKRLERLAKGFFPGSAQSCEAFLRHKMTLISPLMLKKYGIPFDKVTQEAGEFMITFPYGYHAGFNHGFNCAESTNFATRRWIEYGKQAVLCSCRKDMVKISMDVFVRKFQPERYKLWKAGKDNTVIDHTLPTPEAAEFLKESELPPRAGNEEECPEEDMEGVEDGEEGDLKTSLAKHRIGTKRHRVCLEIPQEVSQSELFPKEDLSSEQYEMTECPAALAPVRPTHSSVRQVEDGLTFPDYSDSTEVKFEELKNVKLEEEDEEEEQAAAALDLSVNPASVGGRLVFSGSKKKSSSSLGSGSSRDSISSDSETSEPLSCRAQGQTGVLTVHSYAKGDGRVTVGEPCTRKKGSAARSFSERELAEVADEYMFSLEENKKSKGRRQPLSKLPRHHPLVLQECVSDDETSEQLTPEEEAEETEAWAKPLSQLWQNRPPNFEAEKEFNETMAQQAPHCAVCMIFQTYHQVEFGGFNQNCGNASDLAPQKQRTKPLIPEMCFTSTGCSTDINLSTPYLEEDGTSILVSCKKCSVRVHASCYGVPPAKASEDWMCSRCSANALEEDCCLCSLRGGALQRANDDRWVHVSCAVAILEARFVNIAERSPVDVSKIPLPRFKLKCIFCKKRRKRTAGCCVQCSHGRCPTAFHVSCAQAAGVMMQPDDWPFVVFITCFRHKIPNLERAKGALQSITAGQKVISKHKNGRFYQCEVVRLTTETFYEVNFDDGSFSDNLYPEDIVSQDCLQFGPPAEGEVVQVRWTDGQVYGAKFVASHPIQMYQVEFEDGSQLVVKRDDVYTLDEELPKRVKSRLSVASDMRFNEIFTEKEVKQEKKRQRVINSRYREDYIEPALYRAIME

[5] = target: Dual specificity protein phosphatase 3 (Homo sapiens, UniProt P51452); assay: VHR1 phosphatase inhibitors, biochemical (AID 1878)
Phospholipase A2 = Phospholipase A2 (Homo sapiens, UniProt P04054); format: functional;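 also: confirmatory dose-response counterscreen on phospholipase A2, testing hits that came from an ultra-high-throughput screen for ATG4B inhibitors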
Sequence of Phospholipase A2 (P04054 whole entry): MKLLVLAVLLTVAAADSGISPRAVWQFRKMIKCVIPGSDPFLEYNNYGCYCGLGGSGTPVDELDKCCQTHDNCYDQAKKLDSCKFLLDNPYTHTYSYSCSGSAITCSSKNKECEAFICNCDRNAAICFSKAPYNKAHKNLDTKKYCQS

Sequence of 14-3-3 protein gamma (P61981 whole entry): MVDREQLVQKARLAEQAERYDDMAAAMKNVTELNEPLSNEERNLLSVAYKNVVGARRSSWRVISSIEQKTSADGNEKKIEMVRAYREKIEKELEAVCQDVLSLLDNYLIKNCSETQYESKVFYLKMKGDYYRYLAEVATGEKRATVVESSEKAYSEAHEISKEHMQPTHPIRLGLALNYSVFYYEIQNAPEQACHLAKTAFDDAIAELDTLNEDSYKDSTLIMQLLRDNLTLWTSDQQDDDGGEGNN
Sequence of UDP-galactopyranose mutase (P9WIQ1 whole entry): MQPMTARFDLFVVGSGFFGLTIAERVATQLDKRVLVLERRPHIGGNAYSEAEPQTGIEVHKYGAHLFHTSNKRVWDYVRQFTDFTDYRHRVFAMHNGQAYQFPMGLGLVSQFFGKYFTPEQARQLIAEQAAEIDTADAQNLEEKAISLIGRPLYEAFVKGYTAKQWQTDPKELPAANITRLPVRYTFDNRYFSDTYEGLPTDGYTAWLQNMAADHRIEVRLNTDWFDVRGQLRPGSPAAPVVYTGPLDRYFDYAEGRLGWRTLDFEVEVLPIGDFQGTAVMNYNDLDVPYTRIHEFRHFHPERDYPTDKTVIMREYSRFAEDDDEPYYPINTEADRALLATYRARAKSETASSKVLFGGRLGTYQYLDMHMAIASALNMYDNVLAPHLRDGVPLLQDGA
Sequence of Dual specificity protein phosphatase 3 (P51452 whole entry): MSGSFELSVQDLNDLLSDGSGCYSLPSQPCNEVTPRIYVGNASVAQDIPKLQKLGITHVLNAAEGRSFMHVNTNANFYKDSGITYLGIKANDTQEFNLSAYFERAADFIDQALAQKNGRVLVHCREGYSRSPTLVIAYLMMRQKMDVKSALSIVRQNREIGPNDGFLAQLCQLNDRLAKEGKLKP

In the case of `Nc1ccc2nc3c(O)nc(S)nc3nc2c1`, the AC50 [1] is reported as 3.57 µM (active).

With `Cc1oc2c(c1C(=O)c1ccccc1)C(=O)C(=O)c1ccccc1-2` the EC50 [2] was > 120 µM (not active).

In the case of `O=C1CCCC2=C1C1(O)C(=O)c3ccccc3C1(O)O2` (configuration not stated), the IC50 (14-3-3 protein gamma) is reported as > 50 µM (not active).

For `CSc1ccc(C=NNc2ccc(S(=O)(=O)Nc3ccccc3C(=O)O)cc2[N+](=O)[O-])cc1`, the EC50 [3] was 8.23 µM (active) and the AC50 [4] was 12.4 µM (active).

With `O=C(O)COc1ccc(/C=N/NC(=O)c2ccc(-c3csc(Nc4ccc(Cl)cc4)n3)cc2)cc1` the IC50 [5] was 1.3 µM (active).

With `CC(/C=C1\SC(=S)N(NS(=O)(=O)c2ccccc2)C1=O)=C\c1ccccc1` the IC50 (Phospholipase A2) was 8.23 µM (active).
